Experimental data from patent US10059701B2 (Merck Patent GmbH, priority 2015, dated 2018).
Structures can show the parent of a compound that is named as a salt.

Assays:
[1] = target: T1, IRAK4 (Homo sapiens, UniProt Q9NWZ3); test: IRAK4 enzymatic assay (ADP-Glo luminescence); assay type: biochemical; details: purified human recombinant His-TEV-IRAK4 (1-460), ATP 2 μM
T1 construct: His-TEV-IRAK4 (1-460); His (N); TEV cleavage site (N)
T1 sequence (Q9NWZ3 1-460): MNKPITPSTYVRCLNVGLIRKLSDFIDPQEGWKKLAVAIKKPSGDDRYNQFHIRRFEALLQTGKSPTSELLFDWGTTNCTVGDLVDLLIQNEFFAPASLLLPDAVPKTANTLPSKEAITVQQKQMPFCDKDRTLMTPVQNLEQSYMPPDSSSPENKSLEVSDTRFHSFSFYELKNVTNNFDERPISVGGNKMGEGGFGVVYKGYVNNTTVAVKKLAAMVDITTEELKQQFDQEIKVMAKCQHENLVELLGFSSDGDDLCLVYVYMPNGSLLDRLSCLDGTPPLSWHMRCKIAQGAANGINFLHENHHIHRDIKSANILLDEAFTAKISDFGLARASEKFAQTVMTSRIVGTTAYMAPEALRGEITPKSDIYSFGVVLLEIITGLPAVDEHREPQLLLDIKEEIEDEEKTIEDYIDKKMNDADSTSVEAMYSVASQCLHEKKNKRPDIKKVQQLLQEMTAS
Protocol: IRAK4 is a human purified recombinant enzyme (His-TEV-IRAK4 (1-460)).
In this assay, IRAK4 hydrolyses ATP, autophosphorylates and phosphorylates a Serine/Threonine generic peptidic substrate (STK: 61ST1BLC from CisBio International). Measurement of IRAK-4 inhibition is performed in 384-well format based on a luminescence assay (ADP-Glo™ Kinase Assay from Promega). Purified human recombinant IRAK4 (0.3 μg/ml) and serial diluted compounds in DMSO (range of concentration from 10 μM to 0.5 nM) or controls (1% DMSO) are incubated for 15 minutes at RT in assay buffer containing 50 mM Hepes pH 7.0, Fatty acid-free BSA 0.1%, Dithiothreitol (DTT) 2 mM, MgCl2 10 mM, EGTA 0.5 mM, Triton X-100 0.01%, MnCl2 5 mM. The kinase reaction is then initiated by the addition of ATP (2 μM) and the peptidic substrate STK1-biotin peptide (300 nM). After 2 hours of incubation at RT, the reaction is stopped and the unconsumed ATP depleted by the addition of ADP-Glo™ Reagent according to supplier instructions. After 40 minutes of incubation at RT, the Kinase Detection Reagent is then added to the assay plate according to supplier instructions. After 20 minutes of incubation at RT, the luminescence signal is measured with a plate-reading luminometer (PerkinElmer Envision or equivalent reader).

[2] = target: T2, IRAK1 (Homo sapiens, UniProt P51617); test: IRAK1 enzymatic assay (ADP-Glo luminescence); assay type: biochemical; details: purified human recombinant His-TEV-IRAK1 (194-712)
T2 construct: His-TEV-IRAK1 (194-712); His (N); TEV cleavage site (N)
Protocol: IRAK1 is a human purified recombinant enzyme (His-TEV-IRAK1 (194-712))
In this assay, IRAK1 hydrolyses ATP and autophosphorylates. Measurement of IRAK-1 inhibition is performed in 384-well format based on luminescence assay (ADP-Glo™ Kinase Assay from Promega). Purified human recombinant IRAK1 (0.3 μg/ml) and serial diluted compounds in DMSO (range of concentration from 10 μM to 0.5 nM) or controls (1% DMSO) are incubated for 15 minutes at RT in assay buffer containing 50 mM Hepes pH 7.0, Fatty acid-free BSA 0.1%, Dithiothreitol (DTT) 2 mM, MgCl2 10 mM, EGTA 0.5 mM, Triton X-100 0.01%. The kinase reaction is then initiated by the addition of ATP […] After 2 hours of incubation at RT, the reaction is stopped and the unconsumed ATP depleted by the addition of ADP-Glo™ Reagent according to supplier instructions. After 40 minutes of incubation at RT, the Kinase Detection Reagent is then added to the assay plate according to supplier instructions. After 20 minutes of incubation at RT, the luminescence signal is measured with a luminometer (PerkinElmer Envision or equivalent reader).

T2 sequence (P51617 194-712): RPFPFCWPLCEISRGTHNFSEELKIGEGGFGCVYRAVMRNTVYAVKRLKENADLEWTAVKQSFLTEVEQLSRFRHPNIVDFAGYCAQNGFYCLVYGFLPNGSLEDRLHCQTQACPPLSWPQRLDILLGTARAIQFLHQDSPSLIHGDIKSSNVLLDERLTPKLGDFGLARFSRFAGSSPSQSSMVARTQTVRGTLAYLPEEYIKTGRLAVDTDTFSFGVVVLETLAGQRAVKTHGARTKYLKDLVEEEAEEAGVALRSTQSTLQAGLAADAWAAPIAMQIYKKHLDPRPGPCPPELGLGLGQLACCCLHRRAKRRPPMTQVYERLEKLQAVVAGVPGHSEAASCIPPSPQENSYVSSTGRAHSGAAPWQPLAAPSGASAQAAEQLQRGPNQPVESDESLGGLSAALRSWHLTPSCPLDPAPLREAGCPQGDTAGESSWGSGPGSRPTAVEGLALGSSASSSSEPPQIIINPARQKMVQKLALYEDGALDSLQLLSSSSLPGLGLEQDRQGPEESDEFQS

Compound	IC50 [1]	IC50 [2]
CS(=O)(=O)N1CCC(n2/c(=N/C(=O)c3cccc(C(F)(F)F)c3)[nH]c3cc(N4CCOCC4=O)ccc32)CC1 [Compound 132, (E)-N-(1-(1-(methylsulfonyl)piperidin-4-yl)-5-(3-oxomorpholino)-1H-benzo[d]imidazole-2(3H)-ylidene)-3-(trifluoromethyl)benzamide]	≤ 100 nM	100 to 1000 nM
O=C(/N=c1\[nH]c2cc(N3CC4CC(N4)C3=O)ccc2n1CCCO)c1cccc(C(F)(F)F)c1 (stereo not drawn) [Example 216, (E)-N-(1-(3-hydroxypropyl)-5-(2-oxo-3,6-diazabicyclo[3.1.1]heptan-3-yl)-1H-benzo[d]imidazol-2(3H)-ylidene)-3-(trifluoromethyl)benzamide]	≤ 100 nM	100 to 1000 nM
CC1(C)CN(c2ccc3c(c2)[nH]/c(=N\C(=O)c2cccc(C(F)(F)F)c2)n3CCCO)C(=O)O1 [Example 199, (E)-N-(5-(5,5-dimethyl-2-oxooxazolidin-3-yl)-1-(3-hydroxypropyl)-1H-benzo[d]imidazol-2(3H)-ylidene)-3-(trifluoromethyl)benzamide]	≤ 100 nM	100 to 1000 nM
O=C(/N=c1\[nH]c2cc(N3CCCOC3=O)ccc2n1CC1COC1)c1cccc(C(F)(F)F)c1 [Compound 158, (E)-N-(1-(oxetan-3-ylmethyl)-5-(2-oxo-1,3-oxazinan-3-yl)-1H-benzo[d]imidazol-2(3H)-ylidene)-3-(trifluoromethyl)benzamide]	≤ 100 nM	100 to 1000 nM
CCNC(=O)N1CCC(n2/c(=N/C(=O)c3cccc(C(F)(F)F)c3)[nH]c3cc(N4CCOCC4=O)ccc32)CC1 [Compound 134, (E)-N-ethyl-4-(5-(3-oxomorpholino)-2-((3-(trifluoromethyl)benzoyl)imino)-2,3-dihydro-1H-benzo[d]imidazol-1-yl)piperidine-1-carboxamide]	≤ 100 nM	100 to 1000 nM
O=C(/N=c1\[nH]c2cc(N3CCCOC3=O)ccc2n1CC1CCCCC1)c1cccc(C(F)(F)F)c1 [Compound 181, (E)-N-(1-(cyclohexylmethyl)-5-(2-oxo-1,3-oxazinan-3-yl)-1H-benzo[d]imidazol-2(3H)-ylidene)-3-(trifluoromethyl)benzamide]	≤ 100 nM	> 1000 nM
O=C(/N=c1\[nH]c2cc(N3CCOCC3=O)ccc2n1C1CCNCC1)c1cccc(C(F)(F)F)c1 [Compound 128, (E)-N-(5-(3-oxomorpholino)-1-(piperidin-4-yl)-1H-benzo[d]imidazole-2(3H)-ylidene)-3-(trifluoromethyl)benzamide hydrochloride]	≤ 100 nM	> 1000 nM
O=C(/N=c1\[nH]c2cc(N3CCOCC3=O)ccc2n1C1(CCO)CCCCC1)c1cccc(C(F)F)c1 [Compound 115, (E)-3-(difluoromethyl)-N-(1-(1-(2-hydroxyethyl)cyclohexyl)-5-(3-oxomorpholino)-1H-benzo[d]imidazol-2(3H)-ylidene)benzamide]	100 to 1000 nM	> 1000 nM
O=C(/N=c1\[nH]c2cc(N3CC4CCC(O4)C3=O)ccc2n1CCCO)c1cccc(C(F)(F)F)c1 (stereo not drawn) [Example 217, (E)-N-(1-(3-hydroxypropyl)-5-(2-oxo-8-oxa-3-azabicyclo[3.2.1]octan-3-yl)-1H-benzo[d]imidazol-2(3H)-ylidene)-3-(trifluoromethyl)benzamide]	≤ 100 nM	100 to 1000 nM

Next, values leading:

IC50 [1]	IC50 [2]	Compound
> 1000 nM	> 1000 nM	O=C(/N=c1\[nH]c2cc(N3CCOCC3=O)ccc2n1CCCO)c1ccc2nc[nH]c2c1 [Compound 102, (E)-N-(1-(3-hydroxypropyl)-5-(3-oxomorpholino)-1H-benzo[d]imidazol-2(3H)-ylidene)-1H-benzo[d]imidazole-6-carboxamide]
≤ 100 nM	≤ 100 nM	O=C(/N=c1\[nH]c2cc(N3CCOCC3=O)c(C3CC3)cc2n1CCCO)c1cccc(C(F)F)c1 [Example 209, (E)-N-(6-cyclopropyl-1-(3-hydroxypropyl)-5-(3-oxomorpholino)-1H-benzo[d]imidazol-2(3H)-ylidene)-3-(difluoromethyl)benzamide]
100 to 1000 nM	> 1000 nM	Cn1cnc2ccc(C(=O)/N=c3\[nH]c4cc(N5CCOCC5=O)ccc4n3CCCO)cc21 [Compound 20, (E)-N-(1-(3-hydroxypropyl)-5-(3-oxomorpholino)-1H-benzo[d]imidazol-2(3H)-ylidene)-1-methyl-1H-benzo[d]imidazole-6-carboxamide]
≤ 100 nM	≤ 100 nM	NC(=O)/C=C/c1cccc(C(=O)/N=c2\[nH]c3cc(N4CCOCC4=O)ccc3n2CCCO)c1 [Compound 34, (E)-3-((E)-3-amino-3-oxoprop-1-en-1-yl)-N-(1-(3-hydroxypropyl)-5-(3-oxomorpholino)-1H-benzo[d]imidazol-2(3H)-ylidene)benzamide]
≤ 100 nM	≤ 100 nM	O=C(/N=c1\[nH]c2cc(N3CCOCC3=O)ccc2n1CCCO)c1cc(F)cc(C(F)(F)F)c1 [Compound 81, (E)-3-fluoro-N-(1-(3-hydroxypropyl)-5-(3-oxomorpholino)-1H-benzo[d]imidazol-2(3H)-ylidene)-5-(trifluoromethyl)benzamide]
100 to 1000 nM	> 1000 nM	CCC(CCO)n1/c(=N/C(=O)c2cccc(C(F)(F)F)c2)[nH]c2cc(N3CCOCC3=O)ccc21 (racemic) [Compound 124, rac-(E)-N-(1-(1-hydroxypentan-3-yl)-5-(3-oxomorpholino)-1H-benzo[d]imidazol-2(3H)-ylidene)-3-(trifluoromethyl)benzamide]
≤ 100 nM	100 to 1000 nM	O=C(/N=c1\[nH]c2cc(N3CCOCC3=O)c(Cl)cc2n1CCCO)c1cccc(C(F)F)c1 [Compound 142, (E)-N-(6-chloro-1-(3-hydroxypropyl)-5-(3-oxomorpholino)-1H-benzo[d]imidazol-2(3H)-ylidene)-3-(difluoromethyl)benzamide]
≤ 100 nM	≤ 100 nM	O=C(/N=c1\[nH]c2cc(N3CCN(C4CC4)CC3=O)ccc2n1CCCO)c1cccc(C(F)F)c1 [Compound 182, (E)-N-(5-(4-cyclopropyl-2-oxopiperazin-1-yl)-1-(3-hydroxypropyl)-1H-benzo[d]imidazol-2(3H)-ylidene)-3-(difluoromethyl)benzamide]
≤ 100 nM	100 to 1000 nM	O=C(/N=c1\[nH]c2cc(N3CCOCC3=O)ccc2n1CCCO)c1cncc(C(F)(F)F)c1 [Compound 85, (E)-N-(1-(3-hydroxypropyl)-5-(3-oxomorpholino)-1H-benzo[d]imidazol-2(3H)-ylidene)-5-(trifluoromethyl)nicotinamide]
> 1000 nM	> 1000 nM	O=C(/N=c1\[nH]c2cc(N3CCOCC3=O)ccc2n1CCCO)c1cnccn1 [Compound 72, (E)-N-(1-(3-hydroxypropyl)-5-(3-oxomorpholino)-1H-benzo[d]imidazol-2(3H)-ylidene)pyrazine-2-carboxamide]
≤ 100 nM	≤ 100 nM	O=C(/N=c1\[nH]c2cc(N3CCCOCC3=O)ccc2n1CCCO)c1cccc(C(F)F)c1 [Example 186, (E)-3-(difluoromethyl)-N-(1-(3-hydroxypropyl)-5-(3-oxo-1,4-oxazepan-4-yl)-1H-benzo[d]imidazol-2(3H)-ylidene)benzamide]
≤ 100 nM	100 to 1000 nM	O=C(/N=c1\[nH]c2cc(N3CCOCC3=O)ccc2n1CCCO)c1cccc(-c2ccn(CC(F)(F)F)c(=O)c2)c1 [Compound 163, (E)-N-(1-(3-hydroxypropyl)-5-(3-oxomorpholino)-1H-benzo[d]imidazol-2(3H)-ylidene)-3-(2-oxo-1-(2,2,2-trifluoroethyl)-1,2-dihydropyridin-4-yl)benzamide]
